Test results reported in PubChem BioAssay AID2748 (The Scripps Research Institute Molecular Screening Center, 2010).

Biological target: Heat shock protein HSP 90-alpha (Homo sapiens) (UniProt P07900)
Assay: HSP90 inhibitors, concentration-response – biochemical, luminescence, late-stage follow-up (AID 2748)
Settings: Hsp90 biochemical assay, luminescence read-out

SMILES	IC50
Cc1c(-c2nc(-c3ccc(C(F)(F)F)cc3)no2)n(C)oc1=O	1600 nM
CCOC(=O)c1csc(NC(=O)c2cc3ccccc3o2)n1	878 nM
CCc1ccc(OCc2ccc(C(=O)OC)o2)cc1	1030 nM
CCOC(=O)C1=C(c2ccc(OC)cc2)C(=O)c2ccccc2C1=O	308 nM

Continued, values first:

IC50	SMILES
100 nM	CC(=O)Nc1ccccc1OCC(=O)c1cc(C)n(Cc2cccs2)c1C
871 nM	Cc1cc(NO)nc(-c2ccc(Br)cc2)n1
457 nM	COc1ccccc1NC(=O)c1coc(=O)c(Br)c1
1820 nM	COc1cc(C=NNc2ccc(Cl)c(C(=O)O)c2)ccc1OC(=O)c1ccc(F)cc1
< 3 nM	Cc1c(-c2nc(-c3ccc(C(C)(C)C)cc3)no2)n(C)oc1=O
